Key:
[1] = target: T1, IiPLR1 (Isatis tinctoria, UniProt I6LRS1); test: X-ray crystal structure, co-crystal; assay type: binding; details: wild type
T1 construct: full-length, pET-duet-1, E. coli Rosetta (DE3), Ni-NTA and Superdex-200; homodimer
T1 sequence (I6LRS1 1-317): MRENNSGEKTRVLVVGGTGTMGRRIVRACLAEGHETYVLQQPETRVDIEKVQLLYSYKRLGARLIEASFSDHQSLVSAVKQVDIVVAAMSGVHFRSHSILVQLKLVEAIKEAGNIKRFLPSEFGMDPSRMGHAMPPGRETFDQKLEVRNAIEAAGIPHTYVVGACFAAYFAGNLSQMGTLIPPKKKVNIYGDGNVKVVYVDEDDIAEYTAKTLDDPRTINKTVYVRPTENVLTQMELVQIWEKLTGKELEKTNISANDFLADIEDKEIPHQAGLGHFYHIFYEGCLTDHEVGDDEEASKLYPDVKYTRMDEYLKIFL

[2] = target: Isatis indigotica pinoresinol-lariciresinol reductase 1 (Isatis indigotica); test: crystal structure; sitting-drop vapour diffusion at 20 or 4 °C, protein 5-10 mg/mL; apo, with NADP+ (1:5) or with NADP+ and substrate/product (1:5:10); homodimer seen in the crystal
[3] = target: T2, AtPrR2 (Arabidopsis thaliana, UniProt Q9SVP6, N98S); test: LC-MS product conversion; assay type: biochemical; details: NADPH 150 μM, Tris-HCl pH 7.0, 30 °C, 30 min
T2 construct: gene PRR2; full-length, pET-duet-1, E. coli Rosetta (DE3), Ni-NTA and Superdex-200; homodimer
T2 sequence (Q9SVP6 1-317 N98S): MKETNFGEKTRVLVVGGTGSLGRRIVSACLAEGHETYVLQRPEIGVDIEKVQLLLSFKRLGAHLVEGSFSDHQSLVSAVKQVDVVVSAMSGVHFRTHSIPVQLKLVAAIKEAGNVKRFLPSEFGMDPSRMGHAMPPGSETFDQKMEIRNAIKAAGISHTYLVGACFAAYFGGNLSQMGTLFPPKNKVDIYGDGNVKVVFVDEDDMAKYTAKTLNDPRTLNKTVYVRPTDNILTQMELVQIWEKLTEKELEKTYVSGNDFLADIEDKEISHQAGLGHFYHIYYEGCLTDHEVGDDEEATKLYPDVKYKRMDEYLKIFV

[4] = target: T3, AtPrR1 (Arabidopsis thaliana, UniProt Q9FVQ6); test: X-ray crystal structure, co-crystal; assay type: binding; details: wild type
T3 construct: gene PRR1; full-length, pET-duet-1, E. coli Rosetta (DE3), Ni-NTA and Superdex-200; homodimer
T3 sequence (Q9FVQ6 1-317): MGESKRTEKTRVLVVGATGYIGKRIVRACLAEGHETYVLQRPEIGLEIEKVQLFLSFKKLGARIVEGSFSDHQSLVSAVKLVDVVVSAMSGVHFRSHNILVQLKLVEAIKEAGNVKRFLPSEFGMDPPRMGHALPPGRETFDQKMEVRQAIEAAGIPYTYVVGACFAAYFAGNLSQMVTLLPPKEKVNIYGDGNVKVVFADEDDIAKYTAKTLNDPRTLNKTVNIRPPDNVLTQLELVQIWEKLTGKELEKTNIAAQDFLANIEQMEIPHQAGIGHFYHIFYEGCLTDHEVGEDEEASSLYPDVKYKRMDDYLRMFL

[5] = target: T4, AtPrR2 (Arabidopsis thaliana, UniProt Q9SVP6); test: X-ray crystal structure, co-crystal; assay type: binding; details: wild type, 1.6 Å
T4 construct: gene PRR2; full-length, pET-duet-1, E. coli Rosetta (DE3), Ni-NTA and Superdex-200; homodimer
T4 sequence (Q9SVP6 1-317): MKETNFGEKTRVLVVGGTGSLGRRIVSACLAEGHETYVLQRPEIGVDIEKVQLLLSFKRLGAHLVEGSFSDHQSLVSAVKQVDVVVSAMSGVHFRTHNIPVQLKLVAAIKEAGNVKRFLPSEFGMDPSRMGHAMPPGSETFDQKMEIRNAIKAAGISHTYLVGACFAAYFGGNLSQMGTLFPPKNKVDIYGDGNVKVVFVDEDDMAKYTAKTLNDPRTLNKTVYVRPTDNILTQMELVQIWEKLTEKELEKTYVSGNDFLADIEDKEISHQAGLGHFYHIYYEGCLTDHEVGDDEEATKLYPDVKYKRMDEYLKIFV

[6] = target: the molecule itself; test: crystal structure; sitting-drop vapour diffusion at 20 or 4 °C, protein 5-10 mg/mL; apo, with NADP+ (1:5) or with NADP+ and substrate/product (1:5:10); homodimer seen in the crystal
[7] = substrate: COc1cc(C2OCC3C(c4ccc(O)c(OC)c4)OCC23)ccc1O; test: LC-MS substrate consumption, Lineweaver-Burk; assay type: biochemical, Isatis tinctoria; details: NADPH 150 μM, 50 mM Tris-HCl pH 7.0, 10% glycerol, 30 °C, racemic substrate
From the text: (§1) LC-MS substrate consumption, Lineweaver-Burk on IiPLR1

[8] = substrate: COc1cc(CC2COC(c3ccc(O)c(OC)c3)C2CO)ccc1O; test: LC-MS substrate consumption, Lineweaver-Burk; assay type: biochemical, Isatis tinctoria; details: NADPH 150 μM, 50 mM Tris-HCl pH 7.0, 10% glycerol, 30 °C, racemic substrate
From the text: as §1

With `COc1cc(C[C@H](CO)[C@@H](CO)Cc2ccc(O)c(OC)c2)ccc1O` [+SEC, (+)-secoisolariciresinol] the “X-ray crystal structure, co-crystal” value ([1]; with NADP+, 2.3 Å) was 7CS7 (IiPLR1 with NADP^+ and (+)secoisolariciresinol).

In the case of “Isatis indigotica pinoresinol-lariciresinol reductase 1 (enzyme)”, the stoichiometry N [2] is reported as 2.

For `COc1cc(C[C@H]2CO[C@H](c3ccc(O)c(OC)c3)[C@H]2CO)ccc1O` [lariciresinol], the LC-MS product conversion [3] was “AtPrR2 mutant N98S could utilize lariciresinol to produce secoisolariciresinol”.

For `NC(=O)c1ccc[n+]([C@@H]2O[C@H](COP(=O)(O)OP(=O)(O)OC[C@H]3O[C@@H](n4cnc5c(N)ncnc54)[C@H](OP(=O)(O)O)[C@@H]3O)[C@@H](O)[C@H]2O)c1` [NAP, NADP^+], the “X-ray crystal structure, co-crystal” value ([4]; 2.0 Å) was 7CSA (AtPrR1 with NADP^+), the “X-ray crystal structure, co-crystal” value ([1]; 2.4 Å) was 7CS3 (IiPLR1 with NADP^+) and the “X-ray crystal structure, co-crystal” value ([5]; with (+)-pinoresinol) was 7CSH (AtPrR2 with NADP^+ and (+)pinoresinol).

For `COc1cc(C[C@@H](CO)[C@H](CO)Cc2ccc(O)c(OC)c2)ccc1O` [-SEC, (−)-secoisolariciresinol], the “X-ray crystal structure, co-crystal” value ([4]; with NADP+, 2.0 Å) was 7CSF (AtPrR1 with NADP^+ and (−)secoisolariciresinol) and the “X-ray crystal structure, co-crystal” value ([1]; with NADP+, 2.6 Å) was 7CS8 (IiPLR1 with NADP^+ and (−)secoisolariciresinol).

In the case of `COc1cc(C[C@@H]2CO[C@@H](c3ccc(O)c(OC)c3)[C@@H]2CO)ccc1O` [-LAR, (−)-lariciresinol], the “X-ray crystal structure, co-crystal” value ([4]; with NADP+, 2.5 Å) is reported as 7CSE (AtPrR1 with NADP^+ and (−)lariciresinol) and the “X-ray crystal structure, co-crystal” value ([1]; with NADP+, 2.2 Å) is reported as 7CS6 (IiPLR1 with NADP^+ and (−)lariciresinol).

`COc1cc([C@@H]2OC[C@@H]3[C@H]2CO[C@H]3c2ccc(O)c(OC)c2)ccc1O` [-PIN, (−)-pinoresinol] was tested, and the “X-ray crystal structure, co-crystal” value ([4]; with NADP+, 2.5 Å) was 7CSC (AtPrR1 with NADP^+ and (−)pinoresinol) and the “X-ray crystal structure, co-crystal” value ([1]; with NADP+, 2.1 Å) was 7CS5 (IiPLR1 with NADP^+ and (−)pinoresinol).

With `COc1cc(C[C@H]2CO[C@H](c3ccc(O)c(OC)c3)[C@H]2CO)ccc1O` [+LAR, (+)-lariciresinol] the “X-ray crystal structure, co-crystal” value ([4]; with NADP+, 1.8 Å) was 7CSD (AtPrR1 with NADP^+ and (+)lariciresinol).

`COc1cc([C@H]2OC[C@H]3[C@@H]2CO[C@@H]3c2ccc(O)c(OC)c2)ccc1O` [+PIN, (+)-pinoresinol] was tested, and the “X-ray crystal structure, co-crystal” value ([4]; with NADP+, 2.0 Å) was 7CSB (AtPrR1 with NADP^+ and (+)pinoresinol), the “X-ray crystal structure, co-crystal” value ([1]; with NADP+, 2.3 Å) was 7CS4 (IiPLR1 with NADP^+ and (+)pinoresinol) and the “X-ray crystal structure, co-crystal” value ([5]; with NADP+) was 7CSH (AtPrR2 with NADP^+ and (+)pinoresinol).

B1: Arabidopsis thaliana pinoresinol reductase 2 (enzyme, UniProt Q9SVP6 1-317, looked up)
chain: MKETNFGEKTRVLVVGGTGSLGRRIVSACLAEGHETYVLQRPEIGVDIEKVQLLLSFKRLGAHLVEGSFSDHQSLVSAVKQVDVVVSAMSGVHFRTHNIPVQLKLVAAIKEAGNVKRFLPSEFGMDPSRMGHAMPPGSETFDQKMEIRNAIKAAGISHTYLVGACFAAYFGGNLSQMGTLFPPKNKVDIYGDGNVKVVFVDEDDMAKYTAKTLNDPRTLNKTVYVRPTDNILTQMELVQIWEKLTEKELEKTYVSGNDFLADIEDKEISHQAGLGHFYHIYYEGCLTDHEVGDDEEATKLYPDVKYKRMDEYLKIFV
notes: Head-to-tail homodimer in both crystal forms (apo); with NADP+ and (+)-pinoresinol); also called AtPrR2; PrR; source: E. coli Rosetta (DE3), purified (Ni-NTA, Superdex-200); not shown: His tag (inferred from the Ni-NTA purification)
For B1, the “stoichiometry N” value [6] was 2.

B2: Arabidopsis thaliana pinoresinol reductase 1 (enzyme, UniProt Q9FVQ6 1-317, looked up)
chain: MGESKRTEKTRVLVVGATGYIGKRIVRACLAEGHETYVLQRPEIGLEIEKVQLFLSFKKLGARIVEGSFSDHQSLVSAVKLVDVVVSAMSGVHFRSHNILVQLKLVEAIKEAGNVKRFLPSEFGMDPPRMGHALPPGRETFDQKMEVRQAIEAAGIPYTYVVGACFAAYFAGNLSQMVTLLPPKEKVNIYGDGNVKVVFADEDDIAKYTAKTLNDPRTLNKTVNIRPPDNVLTQLELVQIWEKLTGKELEKTNIAAQDFLANIEQMEIPHQAGIGHFYHIFYEGCLTDHEVGEDEEASSLYPDVKYKRMDDYLRMFL
notes: Head-to-tail homodimer in all crystal forms; crystallised apo, with NADP+, or with NADP+ and substrate/product; also called AtPrR1; PrR; source: E. coli Rosetta (DE3), purified (Ni-NTA, Superdex-200); not shown: His tag (inferred from the Ni-NTA purification)
With B2 the “stoichiometry N” value [6] was 2.

B3: IiPLR1 (Isatis tinctoria; V46A) (protein)
chain: MRENNSGEKTRVLVVGGTGTMGRRIVRACLAEGHETYVLQQPETRADIEKVQLLYSYKRLGARLIEASFSDHQSLVSAVKQVDIVVAAMSGVHFRSHSILVQLKLVEAIKEAGNIKRFLPSEFGMDPSRMGHAMPPGRETFDQKLEVRNAIEAAGIPHTYVVGACFAAYFAGNLSQMGTLIPPKKKVNIYGDGNVKVVYVDEDDIAEYTAKTLDDPRTINKTVYVRPTENVLTQMELVQIWEKLTGKELEKTNISANDFLADIEDKEIPHQAGLGHFYHIFYEGCLTDHEVGDDEEASKLYPDVKYTRMDEYLKIFL
notes: full-length, pET-duet-1, E. coli Rosetta (DE3), Ni-NTA and Superdex-200; homodimer
Molecule B3 has a Km [7] of 29.4 ± 1.62 µM, a Vmax [7] of 3.22 µM/min and a kcat [7] of 1.91 ± 0.402 s⁻¹. For the same molecule, the kcat/Km [7] was 64700 ± 10800 M⁻¹ s⁻¹, the Km [8] was 26.5 ± 0.60 µM and the Vmax [8] was 0.023 µM/min. It also gave a kcat [8] of 0.0135 ± 0.00075 s⁻¹ and a kcat/Km [8] of 517 ± 33.3 M⁻¹ s⁻¹.

Reference: PMC8121951, “Structure-based engineering of substrate specificity for pinoresinol-lariciresinol reductases” (Nature Communications, 2021)
